# Source: patent US20160030369A1, “FKBP52 TARGETING AGENT PHARMACEUTICAL COMPOSITIONS” (THE UNITED STATES OF AMERICA AS REPRESENTED BY THE …, priority 2013, published 2016)
# Like-named read-outs stand apart in the source and are kept apart here.
# Key:
# [1] = Processed sample (autosampler) stability of MJC13 rat plasma and urine extracts; assay type: physicochemical; conditions: for average recoveries: acetonitrile with IS; for recoveries: acetonitrile without IS
# Procedure: Processed sample stability (on-instrument or autosampler stability) of MJC13 rat plasma extracts and rat urine extracts were evaluated by analyzing QC samples at low, medium, and high concentrations. Two sets of plasma samples were extracted with acetonitrile with and without IS, respectively. The plasma extracts were kept in the autosampler for 2, 4, or 6 hours, before injecting into the LC-MS/MS. All of those samples were compared with freshly prepared samples at the same concentrations.
# [2] = Lipophilicity (log P) between water and 1-octanol, shake-flask; assay type: physicochemical; conditions: 1-octanol/water, room temperature, read-out: experimental log P
# Procedure: The lipophilicity of MJC13 was determined as the logarithm of partition coefficient (log P) of the solute between water and 1-octanol. Equal volumes of two-phase solution (water and 1-octanol) was mixed well in a capped glass bottle and then placed in a shaker for 24 hours to make sure that saturation equilibrium had been achieved. MJC13 (1 mL) dissolved in the two-phase solution was added the bottle. Then, MJC13 was partitioned between aqueous and 1-octanol for 72 hours at room temperature using the shake-flask method. The mixture from the bottle was centrifuged at 3000 rpm for 10 minutes and subsequently filtered through a 0.22 μm ultrafiltration unit, and then moved to a separatory funnel for phase separation. The aqueous and 1-octanol phases were analyzed by LC-MS/MS to determine the concentration of drug dissolved. Experiments were conducted in triplicate. The log P was calculated according to Eq. 3: […]
# where Co and Cw represent the concentrations of MJC13 in 1-octanol and aqueous phase, respectively.
# [3] = Solubility of MJC13 in various solvents, shake-flask method; assay type: physicochemical; conditions: thermodynamic from solid
# Procedure: The solubility of MJC13 was evalulated. Because there is no ionizable functional group on the molecular structure, the solubility of MJC13 was expected to be low in water and barely affected by pH. In this work, the solubility of MJC13 in water, ethanol, propylene glycol, polyethylene glycol 400 (PEG 400), polysorbate 80 (Tween 80), olive oil, peanut oil, soybean oil, CAPTEX 200 and LABRAFAC Lipophile WL1349 was determined by a shake-flask method. Briefly, an excess amount of MJC13 was added to each capped glass bottle containing the selected vehicle and mixed for 48 hours at room temperature using a reciprocating shaker. The samples were centrifuged at 3000 rpm for 10 minutes and were subsequently filtered through a 0.22 μm ultrafiltration unit. The filtrates were analyzed by LC/MS/MS to determine the concentration of drug dissolved. The experiments were conducted in triplicate.
# [4] = Solubility of MJC13 in 50% (w/v) HP-β-CD aqueous solution; assay type: physicochemical
# Procedure: An excess amount of MJC13 was added to a sealed glass vial (2 ml) containing saturated (50% w/v) 2-hydroxypropyl-β-cyclodextrin (HP-β-CD) aqueous solution. The vial was shaken at room temperature for 72 hours. Thereafter, the solution was centrifuged, filtered through a 0.2 μm membrane and analyzed for MJC13 by the LC/MS/MS method of Example 1. Experiments were conducted in triplicate. […] It is believed that the resulting pharmaceutical composition has improved biocompatibility because it lacks TWEEN 80 (polysorbate 80).
# [5] = Short-term (bench-top) and frozen storage stability of MJC13 in rat plasma and rat urine; assay type: in vitro ADME
# Procedure: Short-term stability (bench-top stability) of MJC13 in rat plasma and rat urine were evaluated by analyzing triplicates of QC samples at low, medium, and high concentrations. Plasma samples were removed from frozen storage (−20° C.) and remained on the bench-top for 2, 4, or 6 hours. All of those samples were compared with freshly prepared samples at the same concentrations. […] Another set of plasma samples were stored at −80° C. for 7 days.
# (§1) The stability of MJC13 in rat urine was conducted in the same fashion as in rat plasma.
# [6] = Freeze-thaw stability of MJC13 in rat plasma and rat urine; assay type: in vitro ADME
# Procedure: Freeze-thaw stability of MJC13 in rat plasma and rat urine were evaluated by analyzing QC samples at low, medium, and high concentrations. Plasma samples that were exposed for three cycles of freezing (at −20° C.) and thawing (at room temperature) were compared with freshly prepared samples at the same concentrations.
# as §1
# [7] = Solubility of MJC13 in various solvents, shake-flask method; assay type: physicochemical; conditions: DMSO, organic solvent or mixture
# [8] = rat plasma extract, autosampler 2 hours
# [9] = rat plasma extract, autosampler 4 hours
# [10] = rat plasma extract, autosampler 6 hours
# [11] = rat urine extract, autosampler 2 hours
# [12] = rat urine extract, autosampler 4 hours
# [13] = rat urine extract, autosampler 6 hours
structure (smiles),measurement,setting,value
O=C(Nc1cccc(Cl)c1Cl)C1CCCCC1 [MJC13],average recoveries,[1]; [8],97.6±1.3%
same,average recoveries,[1]; [9],98.3±1.5%
same,average recoveries,[1]; [10],96.7±0.7%
same,recoveries,[1]; [8],96.1±1.3%
same,recoveries,[1]; [9],97.6±1.1%
same,recoveries,[1]; [10],97.7±2.4%
same,average recoveries,[1]; [11],95.8±3.2%
same,average recoveries,[1]; [12],98.6±2.5%
same,average recoveries,[1]; [13],97.9±1.7%
same,recoveries,[1]; [11],97.4±2.2%
same,recoveries,[1]; [12],97.1±1.9%
same,recoveries,[1]; [13],96.4±3.3%
same,logP at 72 h,[2],6.49 ± 0.37
same,solubility at 48 h,"[3]; Captex 200, oil or lipid, Captex ® 200, room temperature, read-out: Solubility",31.9 ± 1.6 mg/mL
same,solubility at 48 h,"[3]; Labrafac Lipophile WL1349, oil or lipid, Labrafac ™ Lipophile WL1349, room temperature, read-out: Solubility",24 ± 1.1 mg/mL
same,solubility at 48 h,"[3]; PEG 400, organic solvent or mixture, PEG 400, room temperature, read-out: Solubility",23 ± 0.7 mg/mL
same,solubility at 48 h,"[3]; ethanol, organic solvent or mixture, Ethanol, room temperature, read-out: Solubility",35.6 ± 1.8 mg/mL
same,solubility at 48 h,"[3]; olive oil, oil or lipid, Olive oil, room temperature, read-out: Solubility",16.2 ± 0.3 mg/mL
same,solubility at 48 h,"[3]; peanut oil, oil or lipid, Peanut oil, room temperature, read-out: Solubility",15.6 ± 0.4 mg/mL
same,solubility at 48 h,"[3]; polysorbate 80 (Tween 80), organic solvent or mixture, Polysorbate 80, room temperature, read-out: Solubility",28.2 ± 0.7 mg/mL
same,solubility at 48 h,"[3]; propylene glycol, organic solvent or mixture, Propylene glycol, room temperature, read-out: Solubility",5.7 ± 0.2 mg/mL
same,solubility at 48 h,"[3]; soybean oil, oil or lipid, Soybean oil, room temperature, read-out: Solubility",17.3 ± 0.5 mg/mL
same,solubility at 48 h,"[3]; water, Water, room temperature, read-out: Solubility",0.00028 mg/mL
same,solubility at 48 h,"[3]; water, water, room temperature, read-out: water solubility",0.00028 mg/mL
same,solubility at 72 h,"[4]; 50% (w/v) HP-β-CD aqueous solution, aqueous with cosolvent or surfactant or cyclodextrin, thermodynamic from solid, room temperature, 72 hours",2.6 ± 0.3 mg/mL
same,increase of solubility compared to MJC13 itself in pure water,[4]; 50% (w/v) HP-β-CD solution vs pure water,"10,000 fold"
same,average MJC13 amount remaining,"[5]; rat plasma, bench-top, 2 hours",98.6±1.7%
same,average MJC13 amount remaining,"[5]; rat plasma, bench-top, 4 hours",97.6±2.0%
same,average MJC13 amount remaining,"[5]; rat plasma, bench-top, 6 hours",97.4±1.2%
same,average recoveries,"[5]; rat plasma, stored at −80° C. for 7 days",96.4±1.4%
same,average MJC13 amount remaining,"[5]; rat urine, bench-top, 2 hours",97.9±2.5%
same,average MJC13 amount remaining,"[5]; rat urine, bench-top, 4 hours",99.1±1.9%
same,average MJC13 amount remaining,"[5]; rat urine, bench-top, 6 hours",96.7±2.8%
same,average MJC13 amount remaining,"[5]; rat urine, stored at −80° C. for 7 days",95.9±2.7%
same,average MJC13 amount remaining,"[6]; rat plasma, three freeze (−20° C.)-thaw (room temperature) cycles",96.7±2.0%
same,average MJC13 amount remaining,"[6]; rat urine, three freeze-thaw cycles",97.5±2.4%
same,solubility,[7],> 100 mg/mL
